# Measurements as given in article PMC6406907, “A H2AX–CARP-1 Interaction Regulates Apoptosis Signaling Following DNA Damage” (Cancers, 2019).
# Test system: CARP-1 and γH2AX
# Assay: WB/IF of CARP-1 and γH2AX in HCC827
# Type: cell-based, human
# Details: for CARP-1 and γH2AX increase after knock-down of CARP-1: HCC827, CARP-1 knock-down; for CARP-1 levels and γH2AX: HCC827, WB / IF
# Procedure: Logarithmically growing cells were either untreated or treated with different agents for various time periods. The cells were lysed to prepare protein extracts. IP was carried out by incubating approximately 1 mg of the protein lysate with appropriate antibodies. The immunoprecipitates were then analyzed by SDS-PAGE, followed by WB with respective, interacting protein. For Gst-pulldown, Gst-H2AX or various His-TAT-HA-tagged CARP-1 peptides were generated in Escherichia coli (E. coli) BL21 cells essentially as described by us previously. Briefly, the competent E. coli BL-21 (DE3) pLysS cells were transformed separately with various recombinant pGEX-4T-1 or pTAT-HA constructs. The transformed cells were then subjected to selection by combined presence of ampicillin and chloramphenicol; various isolates for each transformation were obtained and bacterial lysates were characterized for expression of fusion peptides. Cells from each isolate were grown in 4 mL of LB medium containing ampicillin only until the optical density (OD)600 reached 0.4–0.8. Expression of fusion peptides was induced over 2–4 h incubation periods after Isopropyl β-D-1-thiogalactopyranoside (IPTG) addition. The cells were harvested, and pellets were stored at −80 °C overnight. The cell pellets were then lysed in 100–400 μL of bacterial protein extraction reagent (BPER) buffer (Thermo Scientific, Waltham, MA, USA, Cat# 78243) containing 2 μL/mL of 10 units/μL DNAse I (Boehringer Mannheim, Fremont, CA, USA, Cat # 776–785), and supernatant checked for expression of respective fusion peptides by WB. Following confirmation of expression, 5–20 μL of lysate expressing Gst fusion protein was first incubated with 20 μL of precleared glutathione sepharose in a final volume of 100 μL at 4 °C for 2 h with constant rotation. The sepharose beads were spun at 800× g for 2 min, and the pellet was washed 2–4 times with 100–200 μL of RIPA buffer (20 mM Tris-HCl (pH 7.5), 150 mM NaCl, 1 mM Na2EDTA, 1 mM EGTA, 1% NP-40, 1% sodium deoxycholate, 2.5 mM sodium pyrophosphate, 1 mM β-glycerophosphate, 1 mM Na3VO4, 1 µg/mL leupeptin) with 0.5 M NaCl. The beads were spun again as above, and mixed with 5–20 μL of E. coli lysate expressing His-TAT-HA CARP-1 peptides. The reactions were incubated further at 4 °C for 2 h with constant rotation. The peptide-bound sepharose beads were pelleted and washed with 100–200 μL of RIPA buffer with 0.1 M NaCl for 2–4 washes. In some cases, additional washes with 0.05 M NaCl buffer were carried out. After the final wash, the sepharose–protein complexes were spun, and then re-suspended in SDS loading buffer for electrophoresis on 12–15% SDS PAGE, followed by WB with appropriate antibodies.
# Cells were plated onto chamber slides one day before treatment. […]
smiles,measurement,value
"COc1cccc2c1C(=O)c1c(O)c3c(c(O)c1C2=O)C[C@@](O)(C(=O)CO)C[C@@H]3O[C@H]1C[C@H](N)[C@H](O)[C@H](C)O1 [Adriamycin, doxorubicin, reference compound]",CARP-1 and γH2AX increase after knock-down of CARP-1,abrogated CARP-1 and γH2AX increase
same,CARP-1 levels and γH2AX,robust increase in CARP-1 levels and γH2AX
O=C1N(Cc2ccccc2Cl)c2ccccc2C12NN=C(c1cccc(Cl)c1)S2 (stereo not shown) [CFM-4.16],CARP-1 and γH2AX increase after knock-down of CARP-1,abrogated CARP-1 and γH2AX increase
same,CARP-1 levels and γH2AX,robust increase in CARP-1 levels and γH2AX
